Calls of active or inactive are those of the source.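 The calls were made as follows: active = EC50 at or below 10 µM; inactive = EC50 above 10 µM.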
Molecular target: Nuclear hormone receptor DAF-12 (Heterodera glycines)
Test: H. glycines DAF-12 receptor agonist potency, dose response, cell-based, luminescence, HEK293 (AID 743059);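 also: agonist potency for compounds that raise hgDAF-12 reporter luminescence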
Conditions: HEK293 hgDAF-12 reporter, luciferase luminescence

Question: How did the EC50 turn out when `CCOC(=O)c1cnc(SCCc2ccccc2)nc1N` was run?
Answer: The EC50 was > 67.5 µM (inactive).

Question: For `CN1CCN(/C=N/c2sc3c(c2C#N)CCCCC3)CC1`, which EC50 is on record?
Answer: Its EC50 is > 67.5 µM (inactive).

Question: For `Brc1ccc(-c2noc(-c3ccccn3)n2)o1`, which EC50 is on record?
Answer: Its EC50 is > 67.5 µM (inactive).

Question: How did the EC50 turn out when `c1cncc(-c2noc(-c3ccc4ccccc4c3)n2)c1` was run?
Answer: The EC50 was > 67.5 µM (inactive).

Question: For `Cn1c(NC(=O)CCC2CCCCC2)cc(=O)n(C)c1=O`, which EC50 is on record?
Answer: The EC50 was > 67.5 µM (inactive).

Question: With `O=c1[nH]c(=O)n(C2CC(O)C(CO)O2)cc1Br` (stereo unspecified) as the molecule, how does the EC50 read?
Answer: Its EC50 is > 67.6 µM (inactive).

Question: How did the EC50 turn out when `Cc1ccnc(NC(=O)/C=C/c2cccs2)c1` was run?
Answer: The EC50 was > 67.6 µM (inactive).

Question: `CCOC(=O)c1csc(-c2sccc2Br)n1` was tested. Which EC50 did it give?
Answer: Its EC50 is > 67.6 µM (inactive).

Question: With `Cn1c(NC(=O)CCc2ccccc2)cc(=O)n(C)c1=O` as the molecule, how does the EC50 read?
Answer: The EC50 was > 67.5 µM (inactive).

Question: `CC(C)Oc1cc(O)c2c(=O)c(-c3ccc(O)cc3)coc2c1` was tested. Which EC50 did it give?
Answer: Its EC50 is > 67.6 µM (inactive).

Question: Which EC50 does the source give for `CCCCSc1ncnc2c1ncn2C1CCCCO1` (stereo unspecified) here?
Answer: Its EC50 is > 67.4 µM (inactive).

Question: Which EC50 does the source give for `CCN(CC)S(=O)(=O)c1ccc(C(=O)OCC(=O)Nc2ccc(-c3nc4ccc(C)cc4s3)cc2)cc1` here?
Answer: Its EC50 is > 67.5 µM (inactive).

Question: `CN(C)CCNc1ncnc2c1ncn2[C@H]1CN(Cc2cccnc2)C[C@@H](CO)O1` was tested. Which EC50 did it give?
Answer: Its EC50 is > 67.5 µM (inactive).

Question: `O=C(O)c1cc(-c2cccs2)[nH]n1` was tested. Which EC50 did it give?
Answer: Its EC50 is > 67.6 µM (inactive).

Question: How did the EC50 turn out when `Clc1ccc(Nc2nc(-c3cccs3)cs2)nc1` was run?
Answer: Its EC50 is > 67.5 µM (inactive).

Question: With `Cc1nn(-c2ccccc2)c(Cl)c1/C=N/Nc1ccc(Cl)c(C(=O)O)c1` as the molecule, how does the EC50 read?
Answer: The EC50 was > 67.5 µM (inactive).

Question: How did the EC50 turn out when `Clc1ccccc1Nc1nc2ccccc2o1` was run?
Answer: The EC50 was > 67.6 µM (inactive).

Question: How did the EC50 turn out when `Cc1ccc(/C=N/N=C/c2ccc(C)s2)s1` was run?
Answer: Its EC50 is > 67.5 µM (inactive).

Question: How did the EC50 turn out when `CCCn1c(=NC(=O)c2ccco2)c(C(=O)OCC)cc2c(=O)n3ccccc3nc21` was run?
Answer: The EC50 was > 67.5 µM (inactive).

Question: For `c1ccc(CSc2ccc(-c3cccs3)nn2)cc1`, which EC50 is on record?
Answer: The EC50 was > 67.5 µM (inactive).

Question: `COc1ccccc1/C=N\N=C(\N)c1ccccn1` was tested. Which EC50 did it give?
Answer: The EC50 was > 67.6 µM (inactive).

Question: Which EC50 does the source give for `Clc1ccc(CSc2nc3ccncc3[nH]2)cc1` here?
Answer: The EC50 was > 67.5 µM (inactive).

Question: How did the EC50 turn out when `COc1ccc2oc(C(=O)Nc3nccs3)c(C)c2c1` was run?
Answer: The EC50 was > 67.5 µM (inactive).

Question: Which EC50 does the source give for `Brc1ccc(-c2noc(-c3ccccc3)n2)o1` here?
Answer: The EC50 was > 67.6 µM (inactive).

Question: How did the EC50 turn out when `OC(c1ccccc1)c1nc(-c2cnc3ccccc3c2)cs1` (stereo unspecified) was run?
Answer: Its EC50 is > 67.6 µM (inactive).

Question: How did the EC50 turn out when `O=c1[nH]c(=O)n(C2CC(O)C(CO)O2)cc1I` (stereo unspecified) was run?
Answer: The EC50 was > 67.6 µM (inactive).

Question: `Cc1cc(C(=O)NC2CCCCC2)c(C)n1-c1ccc(F)cc1` was tested. Which EC50 did it give?
Answer: The EC50 was > 67.5 µM (inactive).

Question: Which EC50 does the source give for `Nc1ccc2c(c1)Cc1cc(N)c(Cl)cc1-2` here?
Answer: The EC50 was > 67.4 µM (inactive).

Question: For `CCOC(=O)c1cn[nH]c1NC(=S)Nc1ccccc1`, which EC50 is on record?
Answer: The EC50 was > 67.6 µM (inactive).

Question: How did the EC50 turn out when `CCOC(=O)N1CCC(NC(=O)c2cc3ccccn3n2)CC1` was run?
Answer: The EC50 was > 67.5 µM (inactive).

Question: `Cc1c(C(=O)Nc2ccccc2)csc1-c1ccccc1` was tested. Which EC50 did it give?
Answer: Its EC50 is > 67.5 µM (inactive).

Question: With `c1ccc(N=Nc2ccc(C3=NCCO3)cc2)cc1` as the molecule, how does the EC50 read?
Answer: The EC50 was > 67.6 µM (inactive).

Question: With `Cc1cccc(N=Nc2cnc(N)s2)c1` as the molecule, how does the EC50 read?
Answer: Its EC50 is > 67.6 µM (inactive).

Question: With `ON=C(CCc1ccccc1)c1ccccc1` as the molecule, how does the EC50 read?
Answer: The EC50 was > 67.5 µM (inactive).

Question: For `Cc1ccc(-c2nnc(NC3CCCC3)s2)cc1`, which EC50 is on record?
Answer: The EC50 was > 67.6 µM (inactive).

Question: With `CCOC(=O)c1sc2nc3c(cc2c1N)COC(C)(CC)C3` (stereo unspecified) as the molecule, how does the EC50 read?
Answer: Its EC50 is > 67.5 µM (inactive).

Question: With `Cc1cc(-c2ccncc2)n2ncc(-c3ccccc3)c2n1` as the molecule, how does the EC50 read?
Answer: The EC50 was > 67.6 µM (inactive).

Question: With `O=C(NCCCn1ccnc1)c1cc(-c2ccccc2)on1` as the molecule, how does the EC50 read?
Answer: The EC50 was 9.16 µM.

Question: `Clc1ccc(Nc2ccc3ccccc3n2)cc1` was tested. Which EC50 did it give?
Answer: The EC50 was > 67.5 µM (inactive).

Question: Which EC50 does the source give for `CC1CCc2c(sc(NC(=O)C3=COCCO3)c2C(N)=O)C1` (stereo unspecified) here?
Answer: The EC50 was > 67.5 µM (inactive).

Question: `Cc1cc(-c2nc3cccnc3s2)ccc1NS(=O)(=O)c1cccs1` was tested. Which EC50 did it give?
Answer: The EC50 was > 67.5 µM (inactive).

Question: `N#Cc1c(Br)n(C2OC(CO)C(O)C2O)c2ncnc(N)c12` (stereo unspecified) was tested. Which EC50 did it give?
Answer: Its EC50 is > 67.5 µM (inactive).

Question: For `CN(C)c1ccc(Nc2nc(-c3cccnc3)cs2)cc1`, which EC50 is on record?
Answer: The EC50 was > 67.5 µM (inactive).

Question: How did the EC50 turn out when `O=C(NCCCn1ccnc1)c1cc(-c2cccs2)on1` was run?
Answer: Its EC50 is 9.01 µM.

Question: `Cc1ccc(N/N=C(\C#N)C(=N)N2CCCCCC2)cc1` was tested. Which EC50 did it give?
Answer: The EC50 was > 67.5 µM (inactive).

Question: With `Nc1c2c(nc3sc4c(c13)CCCC4)CCCCC2` as the molecule, how does the EC50 read?
Answer: The EC50 was > 67.6 µM (inactive).

Question: `Nc1c(-c2cccs2)cnc2c(-c3ccc(F)cc3)cnn12` was tested. Which EC50 did it give?
Answer: Its EC50 is > 67.5 µM (inactive).

Question: With `Cc1ccnc(NC(=O)C2CCN(S(=O)(=O)c3c(C)c(C)cc(C)c3C)CC2)c1` as the molecule, how does the EC50 read?
Answer: The EC50 was > 67.6 µM (inactive).

Question: With `Cc1ccc(Nc2ncccc2C(N)=O)cc1` as the molecule, how does the EC50 read?
Answer: The EC50 was > 67.4 µM (inactive).

Question: For `CCOC(=O)CSc1nc(-c2ccncc2)ccc1C#N`, which EC50 is on record?
Answer: The EC50 was > 67.5 µM (inactive).

Question: Which EC50 does the source give for `COC(=O)C1C(=O)c2c([nH]c(C(=O)OC3CCCCC3)c2C)CC1C` (stereo unspecified) here?
Answer: The EC50 was > 67.5 µM (inactive).

Question: `C(=C\n1nnc2ccccc21)/c1ccccn1` was tested. Which EC50 did it give?
Answer: The EC50 was > 67.5 µM (inactive).

Question: `CN(C)c1ccc(N=Nc2nccs2)cc1` was tested. Which EC50 did it give?
Answer: The EC50 was > 67.4 µM (inactive).

Question: `Cc1nn(C(=O)c2cccs2)c(N)c1-c1ccccc1` was tested. Which EC50 did it give?
Answer: Its EC50 is > 67.5 µM (inactive).

Question: For `Oc1[nH]c2ccccc2c1C=Nc1ccccc1`, which EC50 is on record?
Answer: The EC50 was > 67.5 µM (inactive).

Question: `Cc1nnc(SCC(=O)Nc2nsc(-c3ccc(C(C)(C)C)cc3)n2)s1` was tested. Which EC50 did it give?
Answer: Its EC50 is > 67.5 µM (inactive).

— PubChem BioAssay AID743059 (The Scripps Research Institute Molecular Screening Center, 2013)
